The results in this text go back to patent publication US20090281077A1, “Cyclic sulfones useful as mitochondrial sodium-calcium exchangers” (priority 2006, published 2009).

For this assay, the target named is T1, mitochondrial sodium-calcium exchanger (mNCE) (Rattus norvegicus, UniProt Q6AXS0).
T1 construct: from tissue; host or cells: rat whole brain, isolated mitochondria
T1 sequence (Q6AXS0 27-585): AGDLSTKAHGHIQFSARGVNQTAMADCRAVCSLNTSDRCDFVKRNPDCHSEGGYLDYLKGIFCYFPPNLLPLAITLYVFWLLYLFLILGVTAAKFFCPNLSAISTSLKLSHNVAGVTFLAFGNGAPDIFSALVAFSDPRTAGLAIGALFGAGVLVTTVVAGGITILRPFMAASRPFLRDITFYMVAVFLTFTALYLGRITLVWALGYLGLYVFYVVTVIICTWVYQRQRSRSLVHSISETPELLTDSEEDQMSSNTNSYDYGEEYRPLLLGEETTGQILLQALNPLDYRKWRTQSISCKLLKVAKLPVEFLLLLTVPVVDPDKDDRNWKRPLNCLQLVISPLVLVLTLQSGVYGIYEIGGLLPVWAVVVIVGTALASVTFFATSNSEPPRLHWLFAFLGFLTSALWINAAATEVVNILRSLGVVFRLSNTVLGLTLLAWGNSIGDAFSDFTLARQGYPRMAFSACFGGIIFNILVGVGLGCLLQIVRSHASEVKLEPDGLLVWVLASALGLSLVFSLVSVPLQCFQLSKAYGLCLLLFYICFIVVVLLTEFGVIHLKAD
As to the kind of experiment: Measurement of the Na-Ca exchanger of rat brain mitochondria (Na-induced Ca-release, Oregon Green fluorescence). The format is biochemical. Particulars: isolated rat brain mitochondria; Ca-efflux rates induced by 20 mM NaCl; rt. Here is the method:
The method is adapted from the method of Rosenthal et al. [J. Cereb. Blood Flow Metab., 7, 752-758 (1987)].
MSH+: 225 mM mannitol, 75 mM sucrose, 5 mM Hepes, 0.5 mM EDTA, 1 mg/ml of BSA (essentially free fatty acid free); final pH=7.3.
MSH−: Equal to MSH+, but without EDTA.
Nagarse solution: 5 mg of nagarse (bacterial protease type XXIV from Sigma, St. Louis, USA, catalogue # P-8038) dissolved in 1 ml of MSH+.
Digitonin solution: 10% W/V in DMSO.
The entire procedure is performed on ice. Remove the whole brain from the rat (1 brain=2 g). Add the tissue to cold MSH+in a beaker on ice. Cut the tissue into small pieces using scissors and wash the tissue 2 times with MSH+. Transfer the tissue into a 20 ml Dounce homogenizer and set level to about 9 ml with MSH+. Add 1 ml of freshly made Nagarse solution. Homogenize (6 strokes with a loose and 6 strokes with a tight pestle). […] The protein concentration is determined using the Pierce BCA assay (Pierce, Rockford Ill., USA). […]
In a typical experiment 96-well microtiter plates (flat bottom) are used. […] Distribute in a 96-well plate 5 μl/well of 2 μM ruthenium red [in 120 mM KCl and 20 mM Tris (pH=7.4)] and the compounds (in DMSO) to be analyzed (1 μl/well). […] Measure the Ca-release induced by the addition of Na by monitoring the Oregon Green fluorescence (485 nm and 538 nm monochromators for excitation and emission, respectively). […]

By IC50 is commonly meant the concentration needed to halve the response being measured. Regarding `O=C1CS(=O)(=O)C(c2ccccc2Cl)c2cc(Cl)ccc2N1` (stereo not shown) [Example 1, 2-Chloro-9-(2-chlorophenyl)-8,8-dioxo-5,7,8,9-tetrahydro-8lambda*6*-thia-5-aza-benzocyclohepten-6-one], the IC50 was found to be 3.8 µM.
